Experimental data as given in PMC11407758, “Integrated stress response (ISR) activation and apoptosis through HRI kinase by PG3 and other p53 pathway-restoring cancer therapeutics” (Oncotarget, 2024).

Key:
TOV-112D (R175H) = experiment: Cell viability assay (CellTiterGlo), TOV-112D; format: cell-based, human
Experimental: (§1) Figure 1 PG3 inhibits cell proliferation and growth in a p53-indepent manner. (A–E) Cell viability assay, dose response curves and IC50 value measurements in a panel of cancer cell lines and normal cells. Cells were treated with different concentrations of PG3, PG3-Oc (Oc), obatoclax (Ob), prodigiosin (P) or DMSO for 72 h. Luciferase activity was imaged by the IVIS Imaging System after treatment. Cell viability data were normalized to those of DMSO treatment control in each cell line and data analyses were performed using PRISM4 software. IC50 data are expressed as the mean ±SD (normal; n = 3).
as §1, with “2 p53-dependent inhibition of” for “1 PG3 inhibits”, “is only observed at specific concentrations. (A–J)” for “and growth in a p53-indepent manner. (A–E)”, “ZMC1, CP-313908, APR-246, Ellipticine, Nutalin-3a” for “PG3, PG3-Oc (Oc), obatoclax (Ob), prodigiosin (P)”
(§2) Cells were seeded in 96-well plates (6 × 10^3 cells/well). Cells were treated with different concentrations of compounds or dimethyl sulfoxide (DMSO) as a control for 72 hours. The cell viability was assessed by CellTiterGlo bioluminescent cell viability assay (Promega), following the manufacturer’s protocol. Bioluminescence imaging was measured using the IVIS imager. The percentage of cell viability (mean ± SEM) at each dose was calculated against the respective DMSO control. The IC50 values were determined from the sigmoidal dose-response curves using GraphPad Prism.

ATF4 = experiment: Western blot, ATF4 induction; format: cell-based, human; conditions: five cancer cell lines, 24 h
Experimental: (§3) Figure 4 Activation of ATF4 and up-regulation of typical p53 target genes. (A–E) Western blot analysis of p53 protein levels and upregulation of ATF4, PUMA, DR5 and p21. Cells were treated for 24 h with indicated compounds, concentrations and cell lines. Abbreviations: S.E.: Short exposure; L.E.: Long exposure.
(§4) After treatment, protein lysates were collected for Western blot analysis. A total of 15 μg of protein was used for SDS-PAGE. After primary and secondary antibody incubations, the signal was detected by a chemiluminescence detection kit, imaged by Syngene (Imgen Technologies). Antibodies for NAG-1 (GDF15) and P53 were from Santa Cruz Biotechnology; for caspase 8, cleaved caspase 8, caspase 9, caspase 3, cleavage PARP, eIF2α, p-eIF2α (Ser51), CHOP, ATF4, DR5, and PUMA were from Cell Signaling Technology. Noxa and p21 were from Calbiochem. Ran was from BD Biosciences.

HCT116 (P53−/−) = experiment: Cell viability assay (CellTiterGlo), HCT116 p53-/-; format: cell-based, human; conditions: for IC50: 72 h, CellTiterGlo
Experimental: as §1
as §1, with “2 p53-dependent inhibition of” for “1 PG3 inhibits”, “is only observed at specific concentrations. (A–J)” for “and growth in a p53-indepent manner. (A–E)”, “ZMC1, CP-313908, APR-246, Ellipticine, Nutalin-3a” for “PG3, PG3-Oc (Oc), obatoclax (Ob), prodigiosin (P)”
as §2

HCT116 (R175H) = experiment: Cell viability assay (CellTiterGlo), HCT116 R175H; format: cell-based, human; conditions: for IC50: 72 h, CellTiterGlo
Experimental: as §1
as §1, with “2 p53-dependent inhibition of” for “1 PG3 inhibits”, “is only observed at specific concentrations. (A–J)” for “and growth in a p53-indepent manner. (A–E)”, “ZMC1, CP-313908, APR-246, Ellipticine, Nutalin-3a” for “PG3, PG3-Oc (Oc), obatoclax (Ob), prodigiosin (P)”
as §2

[1] = tested on: SW480 cells carrying a p53-responsive luciferase reporter; experiment: p53-responsive reporter assay; format: cell-based, human; conditions: 6 hour and 15 hour time points
Experimental: SW480 cells carrying a p53-responsive luciferase reporter were used for assay of functional restoration of mutant p53. Cells were seeded in 96-well plates (5 × 10^4 cells/well) and were treated with compounds indicated for 6 and 15 h, respectively. Then, D-luciferin was added to each well with final concentration 100 μg/mL, and cells were imaged by using an IVIS Imaging System to detect luciferase activity.
p53-mutant SW480 human colon cancer cells, stably expressing a p53-responsive luciferase reporter, were used to assay functional restoration p53 pathway-dependent transcription in mutant p53-expressing tumor cells. Cells were seeded in 96-well plates (5 × 10^4 cells/well) and were treated with small-molecule compounds for 6 and 15 h, respectively. Then, D-luciferin was added to each well at a final concentration of 100 μg/mL, and cells were imaged by using an IVIS Imaging System (Xenogen) to detect luciferase activity.

p53 protein = experiment: Western blot, p53 protein levels; format: cell-based, human; conditions: for wild-type p53 protein level: HCT116, 24 h; for endogenous mutant p53 R273H protein level: HT29, 24 h; for endogenous mutant p53 R175H protein level: TOV-112D; for endogenous mutant p53 R175H protein level / exogenous mutant p53 R175H protein level: 24 h; for exogenous mutant p53 R175H protein level: engineered HCT116-R175H cells
Experimental: Cells were treated for 24 h with indicated compounds, concentrations and cell lines. Abbreviations: S.E.: Short exposure; L.E.: Long exposure.
as §4

HCT116 (WT) = experiment: Cell viability assay (CellTiterGlo), HCT116 WT; format: cell-based, human; conditions: for IC50: 72 h, CellTiterGlo
Experimental: as §1
as §1, with “2 p53-dependent inhibition of” for “1 PG3 inhibits”, “is only observed at specific concentrations. (A–J)” for “and growth in a p53-indepent manner. (A–E)”, “ZMC1, CP-313908, APR-246, Ellipticine, Nutalin-3a” for “PG3, PG3-Oc (Oc), obatoclax (Ob), prodigiosin (P)”
as §2

PUMA = experiment: Western blot, PUMA induction; format: cell-based, human
Experimental: as §3, §4

[2] = tested on: HT29, TOV-112D, isogenic HCT116 cell lines, HFF-1 and MRC5; experiment: Cell viability assay, panel of cancer cell lines and normal cells (results in words); format: cell-based, human
Experimental: as §1, with “2 p53-dependent inhibition of” for “1 PG3 inhibits”, “is only observed at specific concentrations. (A–J)” for “and growth in a p53-indepent manner. (A–E)”, “ZMC1, CP-313908, APR-246, Ellipticine, Nutalin-3a” for “PG3, PG3-Oc (Oc), obatoclax (Ob), prodigiosin (P)”
as §2

p21 = experiment: Western blot, p21 induction; format: cell-based, human
Experimental: as §3, §4

DR5 = experiment: Western blot, DR5 induction; format: cell-based, human
Experimental: as §3, §4

[3] = tested on: HFF-1 (human foreskin fibroblast cell with wild-type p53); experiment: Cell viability assay (CellTiterGlo), HFF-1 normal cells; format: cell-based; conditions: Homo sapiens, HFF-1; 72 h, CellTiterGlo, normal cells; read-out: IC50 values, HFF-l (WT)
Experimental: as §1
as §1, with “2 p53-dependent inhibition of” for “1 PG3 inhibits”, “is only observed at specific concentrations. (A–J)” for “and growth in a p53-indepent manner. (A–E)”, “ZMC1, CP-313908, APR-246, Ellipticine, Nutalin-3a” for “PG3, PG3-Oc (Oc), obatoclax (Ob), prodigiosin (P)”
as §2

HT29 (R273H) = experiment: Cell viability assay (CellTiterGlo), HT29; format: cell-based, human; conditions: Homo sapiens, HT-29; 72 h, CellTiterGlo
Experimental: as §1
as §1, with “2 p53-dependent inhibition of” for “1 PG3 inhibits”, “is only observed at specific concentrations. (A–J)” for “and growth in a p53-indepent manner. (A–E)”, “ZMC1, CP-313908, APR-246, Ellipticine, Nutalin-3a” for “PG3, PG3-Oc (Oc), obatoclax (Ob), prodigiosin (P)”
as §2

[4] = tested on: GCN2, PKR, eIF2α, ATF4, CHOP in HT29 cells; experiment: Western blot, ISR kinases / eIF2α / ATF4 / CHOP; format: cell-based, human; conditions: pre-treatment 2 hours, then ONC201 or PG3 for 24 hour
Experimental: Figure 7 PG3 induces upregulation of ATF4 through ISR via HRI. (A) HT29 cells were treated with PG3, GSK2606414, TG and ONC201 respectively, or co-treatment with PG3/GSK2606414, PG3/TG, and PG3/ONC201 for 15 h. (B) MEF, MEF^PERK−/− and MEF^GCN2−/− cells were treated with PG3 and ONC201 for 16 hours. (C) HT29 cells were transfected with siControl, siPKR, siHRI and siPKR/siHRI for 24 hours and then treated with PG3 for 16 hours. (D) HCT116 p53^−/− cells were transfected with siControl and siHRI for 24 hours and then treated with PG3 for 16 hours. (E) HCT116 p53^−/− cells were treated with PG3 and ONC201 for indicated times. (F) PANC1-sgCtrl, -sgHRI and -sgPKR cell lines were treated with PG3 and imipridones (ONC201, ONC206 and ONC212) for 16 hours. Western blot was performed using indicated antibodies. (G) Proposed model of PG3-induced cell apoptosis through HRI/ATF4/PUMA axis. Abbreviation: L.E.: Long exposure.
as §4
Supplementary Figure 2: ROS and NO are not responsible for PG3-induced HRI activation. (A, B) cells were pre-treated
with ZnPP, L-NMMA, SA and NAC for 2 hours respectively, and then ONC201 or PG3 was added to the medium for 24 hour treatment.
Western blot was performed using indicated antibodies.
(1 picture or pasted object on this page, not shown here)

## COCC1(CO)C(=O)C2CCN1CC2 (stereo not shown) [APR-246]
TOV-112D (R175H); TOV-112D, 6.67 μM
  inhibition of proliferation: almost completely inhibited
ATF4
  upregulation of ATF4: does not upregulate ATF4
HCT116 (P53−/−)
  IC50: 11.3 µM
HCT116 (P53−/−); p53-null HCT116 vs HCT116 WT, 'at a concentration of 20 μM'
  fold more sensitive than the p53 wild-type HCT116 cell line: 2.9 fold
HCT116 (R175H)
  IC50: 8.87 µM
HCT116 (R175H); p53-mutated R175H HCT116 vs HCT116 WT, 'at a concentration of 20 μM'
  fold more sensitive than the p53 wild-type HCT116 cell line: 3.7 fold
[1]; up to 60 μM
  p53-responsive reporter activity: not able to activate the reporter
p53 protein
  wild-type p53 protein level: no effect
  endogenous mutant p53 R273H protein level: stabilizes
  endogenous mutant p53 R175H protein level: stabilizes
  exogenous mutant p53 R175H protein level: does not stabilize
HCT116 (WT)
  IC50: 33 µM
PUMA; HCT116 (p53 wild-type), 24 h
  upregulation of PUMA: upregulates PUMA
[2]; HFF-1 and MRC5, 0.08 μM
  inhibitory effects on normal cells: no detectable inhibitory effects
[2]; TOV-112D and HT29, 0.08 μM
  inhibition of proliferation: potently inhibited
p21; HCT116 (p53 wild-type), 24 h
  upregulation of p21: slightly induces p21
p21; TOV-112D, 24 h
  upregulation of p21: slightly induces p21

## Cc1c2ccncc2c(C)c2c1[nH]c1ccccc12 [Ellipticine]
TOV-112D (R175H); Homo sapiens, TOV112D, 72 h, CellTiterGlo, read-out: IC50 values, TOV-1120 (R175H) (converted)
  IC50: 19.3 µM
DR5; HCT116 (p53 wild-type), 24 h
  upregulation of DR5: slightly upregulates the short isomer of DR5
DR5; HT29, 24 h
  upregulation of DR5: slightly upregulates the short isomer of DR5
ATF4
  upregulation of ATF4: do not upregulate ATF4
HCT116 (P53−/−); Homo sapiens, HCT-116
  IC50: 2.42 µM
HCT116 (R175H); Homo sapiens, HCT-116
  IC50: 1.79 µM
[1]; 10 μM
  p53-responsive reporter activity: activates the reporter activity
p53 protein
  wild-type p53 protein level: potently stabilizes
  endogenous mutant p53 R273H protein level: stabilized
  endogenous mutant p53 R175H protein level: mildly downregulates
  exogenous mutant p53 R175H protein level: upregulates
HCT116 (WT); Homo sapiens, HCT-116
  IC50: 0.999 µM
HCT116 (WT); isogenic HCT116 cell lines, 1.11 μM
  selective toxicity among isogenic HCT116 cell lines: selective toxicity towards the p53-wild-type cell line
[3]
  IC50: 6.07 µM
PUMA; HCT116 (p53 wild-type), 24 h
  upregulation of PUMA: mildly upregulates PUMA
PUMA; HT29, 24 h
  upregulation of PUMA: does not upregulate PUMA
PUMA; TOV-112D, 24 h
  upregulation of PUMA: does not upregulate PUMA
[2]; HFF-1 and MRC5, 0.04 to 3.33 μM
  toxicity to normal cells: no significant toxicity
[2]; HT29 and TOV-112D, 0.04 to 3.33 μM
  inhibition of proliferation: selectively inhibits the proliferation
p21; HCT116 (p53 wild-type), 24 h
  upregulation of p21: significantly upregulates p21
p21; HCT116 p53-R175H, 24 h
  upregulation of p21: mildly upregulates p21
p21; HCT116 p53–/–, 24 h
  upregulation of p21: slightly upregulates p21
p21; HT29, 24 h
  upregulation of p21: slightly upregulates p21
p21; TOV-112D, 24 h
  upregulation of p21: mildly upregulates p21
HT29 (R273H)
  IC50: 0.713 µM

## [H]/N=C(/NC)NCCC[C@H](N)C(=O)O [L-NMMA, N-Methyl-L-arginine acetate]
[4]
  effect on PG3- or ONC201-induced upregulation of ATF4: do not attenuate or block
